Assay results published in patent publication US20090215755A1, “USE OF A PYRAZOLE DERIVATIVE FOR PREPARING MEDICINAL PRODUCTS THAT ARE USEFUL IN THE PREVENTION AND TREATMENT OF DYSLIPIDAEMIAS AND OF DISEASES RELATED TO DYSLIPIDAEMIAS AND/OR TO OBESITY” (SANOFI-AVENTIS, priority 2003, published 2009).
Marks after values point to notes of the source that are not given here.

How the values were obtained:
obese patients [1] = test: Clinical trial of rimonabant on the lipid parameters, 4 weeks of treatment, obese patients; type: in vivo, human; settings: for Improvement in metabolic syndrome / Weight loss / Decrease in triglycerides ≧10% / Increase in HDLc ≧10% / Blood glucose level: obese patients; for Improvement in metabolic syndrome: ATP III definition; for Weight loss: low-calorie diet; for Decrease in triglycerides ≧10% / Increase in HDLc ≧10%: share of patients; for Blood glucose level: signed values (change)
Experimental: A clinical trial was carried out for 4 weeks on 287 obese patients whose body mass index (BMI) was between 30 and 40. After having received the placebo for 2 weeks, the patients were randomized so as to receive doses of 5, 10 or 20 mg/day of rimonabant or the placebo.
There was a check-up visit 4 weeks after the end of the treatment.
For the duration of the study, the patients were asked to follow a low-calorie diet (deficit of 500 kcal/day).

obese mice = test: Action of rimonabant on blood lipid levels in obese mice (2 months of treatment); type: in vivo; settings: rimonabant 10 mg/kg/day oral
Experimental: The effect of a long-term (2 months) treatment with rimonabant was studied in mice having an established obesity.
The study was carried out in mice receiving either a normal diet or a fatty diet. Obesity developed in the mice receiving a fatty diet and it became stabilized after 5 months. The mice were then divided up into 3 groups:
group 1: maintenance of the fatty diet and oral treatment for 2 months with rimonabant at 10 mg/kg/day, in water with 0.1% of Tween 80 (vehicle);
group 2: maintenance of the fatty diet and administration of the vehicle (water+0.1% of Tween 80);
group 3: return to a normal diet and administration of the vehicle (water+0.1% of Tween 80);
group 4 consists of mice receiving a normal diet and the vehicle from the start.

obese patients [2] = settings: clinical studies, Le Fur 2003; Heshmati et al. 2001; cited from earlier work
[3] = system: obese individuals with dyslipidaemias; test: Rio Lipids clinical study, 12 months, obese individuals with dyslipidaemias; type: in vivo, human
Experimental: The Rio Lipids clinical study, carried out for 12 months in 1036 obese individuals with dyslipidaemias, compares the effect of rimonabant at a dose of 20 mg, versus a placebo product, in weight reduction, improvement in the lipid parameters and prevalence of metabolic syndrome. The treated group and the placebo group are subjected to a low-calorie diet.

obese fa/fa Zucker rats = test: Effect of rimonabant on steatosis and steatohepatitis in obese rats; type: in vivo; settings: rimonabant 30 mg/kg/day oral, 2 months
Experimental: The effect of rimonabant on steatosis and steatohepatitis was studied in obese fa/fa Zucker rats.
For this study, 3 groups are formed: • thin rats/vehicle group: thin Zucker rats treated with the vehicle (water and 0.1% Tween 80); • obese rats/vehicle group: obese fa/fa Zucker rats treated with the vehicle (water and 0.1% Tween 80); • obese rats/rimonabant group: obese fa/fa Zucker rats treated orally for 2 months with rimonabant at 30 mg/kg/day, in the vehicle (water and 0.1% Tween 80).
After 2 months of treatment, the body weight and the weight of the liver are measured for each rat, and a histopathological analysis of the fat load in the livers is carried out.

[4] = rimonabant groups 5, 10, 20 mg/day taken together
[5] = group 1: obese mice kept on fatty diet
[6] = group 1: obese mice, fatty diet

Cc1c(C(=O)NN2CCCCC2)nn(-c2ccc(Cl)cc2Cl)c1-c1ccc(Cl)cc1 [rimonabant, N-piperidino-5-(4-chlorophenyl)-1-(2,4-dichlorophenyl)-4-methylpyrazole-3-carboxamide]
Improvement in metabolic syndrome (obese patients [1]; 5 mg/d rimonabant): 42% | Weight loss (obese patients [1]; 5 mg/d rimonabant): 3.4 * kg | Decrease in triglycerides ≧10% (obese patients [1]; 5 mg/d rimonabant): 36% | Increase in HDLc ≧10% (obese patients [1]; 5 mg/d rimonabant): 43% | Blood glucose level (obese patients [1]; 5 mg/d rimonabant): −0.09 ** mmol/1 | Improvement in metabolic syndrome (obese patients [1]; 10 mg/d rimonabant): 39% | Weight loss (obese patients [1]; 10 mg/d rimonabant): 3.7 * kg | Decrease in triglycerides ≧10% (obese patients [1]; 10 mg/d rimonabant): 34% | Increase in HDLc ≧10% (obese patients [1]; 10 mg/d rimonabant): 45% | Blood glucose level (obese patients [1]; 10 mg/d rimonabant): −0.02 *** mmol/1 | Improvement in metabolic syndrome (obese patients [1]; 20 mg/d rimonabant): 21% | Weight loss (obese patients [1]; 20 mg/d rimonabant): 4.5 * kg | Decrease in triglycerides ≧10% (obese patients [1]; 20 mg/d rimonabant): 51% | Increase in HDLc ≧10% (obese patients [1]; 20 mg/d rimonabant): 44% | Blood glucose level (obese patients [1]; 20 mg/d rimonabant): +0.03 mmol/1 | blood glucose level (overall statement) (obese patients [1]; [4]): remains stable or decreases discretely | metabolic syndrome as defined by ATP III (overall statement) (obese patients [1]; [4]): tendency for the metabolic syndrome to improve | triglycerides (overall statement) (obese patients [1]; [4]): tendency for the triglycerides to decrease | HDLc/total cholesterol (obese mice; [5]): 62.2 ± 0.5 % | LDLc/total cholesterol (obese mice; [5]): 5.5 ± 0.3 % | glucose blood level (obese mice; [6]): decrease | insulin blood level (obese mice; [6]): decrease | leptin blood level (obese mice; [6]): decrease | body weight of obese patients (obese patients [2]): reduces the body weight of obese patients | food intake (obese patients [2]): acts on food intake from a quantitative and qualitative point of view | adiponectin, starting level ([3]; rimonabant 20 mg group, before the year of treatment): 5.8 ± 2.7 µg/mL | adiponectin at the end of the year of treatment ([3]; rimonabant 20 mg, 12 months): 8.2 ± 4.2 µg/mL | increase in the HDLc level exceeding that of the placebo group ([3]; rimonabant 20 mg, 12 months, low-calorie diet): 11.3±1.7% | decrease in the triglyceride level exceeding that of the placebo group ([3]; rimonabant 20 mg, 12 months, low-calorie diet, p<0.001): 12.2±3.7 | weight loss greater than that observed in the placebo group ([3]; rimonabant 20 mg, 12 months, low-calorie diet, p≦0.001): 6.3 ± 0.5 kg | patients who stopped showing the metabolic syndrome characteristics ([3]; rimonabant 20 mg, 12 months, p<0.001 vs placebo): 60.2% | Liver weight/body weight ratio (obese fa/fa Zucker rats): 3.86 ± 0.07 % | decrease of the increase in the liver weight/body weight ratio seen in obese/vehicle rats (obese fa/fa Zucker rats): 80% | fat overload in the liver (histopathological analysis) (obese fa/fa Zucker rats): disappearance of this fat overload
